Numbers after ± are expanded uncertainties.
Details: Liquid, Bellows volumetry

CCCCCCCC[n+]1ccn(C)c1.F[P-](F)(F)(F)(F)F [1-octyl-3-methylimidazolium hexafluorophosphate]
mass density (392.8 K, 90000 kPa): 1220 ± 4 kg/m3
mass density (392.8 K, 100000 kPa): 1225 ± 4 kg/m3
mass density (392.8 K, 110000 kPa): 1230 ± 4 kg/m3
mass density (392.8 K, 120000 kPa): 1235 ± 4 kg/m3
mass density (392.8 K, 130000 kPa): 1239 ± 4 kg/m3
mass density (392.8 K, 140000 kPa): 1243 ± 4 kg/m3
mass density (392.8 K, 150000 kPa): 1248 ± 4 kg/m3
mass density (392.8 K, 160000 kPa): 1252 ± 4 kg/m3
mass density (392.8 K, 170000 kPa): 1256 ± 4 kg/m3
mass density (392.8 K, 180000 kPa): 1260 ± 4 kg/m3
mass density (392.8 K, 190000 kPa): 1264 ± 4 kg/m3
mass density (392.8 K, 200000 kPa): 1268 ± 4 kg/m3
mass density (413 K, 10000 kPa): 1157 ± 4 kg/m3
mass density (413 K, 20000 kPa): 1165 ± 4 kg/m3
mass density (413 K, 30000 kPa): 1172 ± 4 kg/m3
mass density (413 K, 40000 kPa): 1179 ± 4 kg/m3
mass density (413 K, 50000 kPa): 1185 ± 4 kg/m3
mass density (413 K, 60000 kPa): 1191 ± 4 kg/m3
mass density (413 K, 70000 kPa): 1197 ± 4 kg/m3
mass density (413 K, 80000 kPa): 1203 ± 4 kg/m3
mass density (413 K, 90000 kPa): 1208 ± 4 kg/m3
mass density (413 K, 100000 kPa): 1213 ± 4 kg/m3
mass density (413 K, 110000 kPa): 1218 ± 4 kg/m3
mass density (413 K, 120000 kPa): 1223 ± 4 kg/m3
mass density (413 K, 130000 kPa): 1228 ± 4 kg/m3
mass density (413 K, 140000 kPa): 1232 ± 4 kg/m3
mass density (413 K, 150000 kPa): 1237 ± 4 kg/m3
mass density (413 K, 160000 kPa): 1241 ± 4 kg/m3
mass density (413 K, 170000 kPa): 1245 ± 4 kg/m3
mass density (413 K, 180000 kPa): 1249 ± 4 kg/m3
mass density (413 K, 190000 kPa): 1253 ± 4 kg/m3
mass density (413 K, 200000 kPa): 1257 ± 4 kg/m3
mass density (432.7 K, 10000 kPa): 1144 ± 4 kg/m3
mass density (432.7 K, 20000 kPa): 1152 ± 4 kg/m3
mass density (432.7 K, 30000 kPa): 1159 ± 4 kg/m3
mass density (432.7 K, 40000 kPa): 1166 ± 4 kg/m3
mass density (432.7 K, 50000 kPa): 1173 ± 4 kg/m3
mass density (432.7 K, 60000 kPa): 1179 ± 4 kg/m3
mass density (432.7 K, 70000 kPa): 1185 ± 4 kg/m3
mass density (432.7 K, 80000 kPa): 1191 ± 4 kg/m3
mass density (432.7 K, 90000 kPa): 1197 ± 4 kg/m3
mass density (432.7 K, 100000 kPa): 1202 ± 4 kg/m3
mass density (432.7 K, 110000 kPa): 1207 ± 4 kg/m3
mass density (432.7 K, 120000 kPa): 1212 ± 4 kg/m3
mass density (432.7 K, 130000 kPa): 1217 ± 4 kg/m3
mass density (432.7 K, 140000 kPa): 1222 ± 4 kg/m3
mass density (432.7 K, 150000 kPa): 1226 ± 4 kg/m3
mass density (432.7 K, 160000 kPa): 1231 ± 4 kg/m3
mass density (432.7 K, 170000 kPa): 1235 ± 4 kg/m3
mass density (432.7 K, 180000 kPa): 1239 ± 4 kg/m3
mass density (432.7 K, 190000 kPa): 1243 ± 4 kg/m3
mass density (432.7 K, 200000 kPa): 1247 ± 4 kg/m3
mass density (452.5 K, 10000 kPa): 1130 ± 3 kg/m3
mass density (452.5 K, 20000 kPa): 1138 ± 4 kg/m3
mass density (452.5 K, 30000 kPa): 1146 ± 4 kg/m3
mass density (452.5 K, 40000 kPa): 1153 ± 4 kg/m3
mass density (452.5 K, 50000 kPa): 1160 ± 4 kg/m3
mass density (452.5 K, 60000 kPa): 1167 ± 4 kg/m3
mass density (452.5 K, 70000 kPa): 1173 ± 4 kg/m3
mass density (452.5 K, 80000 kPa): 1179 ± 4 kg/m3
mass density (452.5 K, 90000 kPa): 1185 ± 4 kg/m3
mass density (452.5 K, 100000 kPa): 1191 ± 4 kg/m3
mass density (452.5 K, 110000 kPa): 1196 ± 4 kg/m3
mass density (452.5 K, 120000 kPa): 1201 ± 4 kg/m3
mass density (452.5 K, 130000 kPa): 1206 ± 4 kg/m3
mass density (452.5 K, 140000 kPa): 1211 ± 4 kg/m3
mass density (452.5 K, 150000 kPa): 1216 ± 4 kg/m3
mass density (452.5 K, 160000 kPa): 1220 ± 4 kg/m3
mass density (452.5 K, 170000 kPa): 1225 ± 4 kg/m3
mass density (452.5 K, 180000 kPa): 1229 ± 4 kg/m3
mass density (452.5 K, 190000 kPa): 1233 ± 4 kg/m3
mass density (452.5 K, 200000 kPa): 1237 ± 4 kg/m3
mass density (472.3 K, 10000 kPa): 1116 ± 3 kg/m3
mass density (472.3 K, 20000 kPa): 1125 ± 3 kg/m3
mass density (472.3 K, 30000 kPa): 1133 ± 3 kg/m3
mass density (472.3 K, 40000 kPa): 1141 ± 4 kg/m3
mass density (472.3 K, 50000 kPa): 1148 ± 4 kg/m3
mass density (472.3 K, 60000 kPa): 1155 ± 4 kg/m3
mass density (472.3 K, 70000 kPa): 1162 ± 4 kg/m3
mass density (472.3 K, 80000 kPa): 1168 ± 4 kg/m3
mass density (472.3 K, 90000 kPa): 1174 ± 4 kg/m3
mass density (472.3 K, 100000 kPa): 1180 ± 4 kg/m3
mass density (472.3 K, 110000 kPa): 1185 ± 4 kg/m3
mass density (472.3 K, 120000 kPa): 1191 ± 4 kg/m3
mass density (472.3 K, 130000 kPa): 1196 ± 4 kg/m3
mass density (472.3 K, 140000 kPa): 1201 ± 4 kg/m3
mass density (472.3 K, 150000 kPa): 1205 ± 4 kg/m3
mass density (472.3 K, 160000 kPa): 1210 ± 4 kg/m3
mass density (472.3 K, 170000 kPa): 1215 ± 4 kg/m3
mass density (472.3 K, 180000 kPa): 1219 ± 4 kg/m3
mass density (472.3 K, 190000 kPa): 1223 ± 4 kg/m3
mass density (472.3 K, 200000 kPa): 1228 ± 4 kg/m3

Source: the NIST ThermoML archive (doi:10.1021/je800224k)
